Tested on: P. falciparum Dd2 in RBCs, SYBR green growth
Assay: antimalarial activity against Dd2 parasites – Dd2 strain, red blood cells, dry powder, PfHsp90 inhibitor project, dose response (AID 588838)

Q: With O=S(=O)(/C=C/c1ccccc1)NC1CCCCCCC1 as the compound, how does the AC50 read?
A: Its AC50 is 66.1 µM.

Q: With COc1ccc2c(c1)C=C(C(=O)NCc1ccc(Cl)cc1)CO2 as the compound, how does the AC50 read?
A: The AC50 was 43.9 µM.

Q: With O=S(=O)(NC1CC2CCC1C2)c1ccc(Cl)cc1 (stereo unspecified) as the compound, how does the AC50 read?
A: The AC50 was 98.5 µM.

Q: Which AC50 does the source give for O=C(CSCC(=O)N1CCCCC1)Nc1nc(-c2ccc(Cl)s2)cs1 here?
A: Its AC50 is 40 µM.

Q: For Cc1ccc(OCc2n[nH]c(=S)n2C2CCCCC2)cc1, which AC50 is on record?
A: The AC50 was 60.6 µM.

Q: Which AC50 does the source give for O=S(=O)(NC1CCCCCC1)c1ccc(Br)s1 here?
A: Its AC50 is 16.3 µM.

Reference: PubChem BioAssay AID588838 (Broad Institute, 2011)
